The values that follow come from patent US8877681B2, “Use of specific alcohol alkoxylates as an adjuvant for agrotechnical applications” (BASF SE, priority 2002, dated 2014).

Assay [1] concerns white goosefoot (Chenepodium album; CHEAL). As to the kind of experiment: Greenhouse herbicidal efficacy test, tank mix of herbicide and adjuvant, post-emergence spray. The note with it: 0% no damage, 100% complete damage. It is filed as in vivo. The procedure:
(§1) The alkoxylates were applied by the tank mix method together with Basagran (480 g/l bentazone) or BAS 635 H (71.4% by weight of tritosulfuron). […] The herbicidal effect was assessed in a greenhouse experiment. The test plant used was white goosefoot (Chenepodium album; CHEAL) and the common morningglory (Pharbitis album; PHAAL).
(§2) The plants were sown directly or pricked out at a rate of 3-15 plants per pot. When the active ingredient was applied, the plants were 5-16 cm in height. The test containers used were plastic pots containing loamy sand and approximately 3% humus as substrate. The surfactants were applied by the tank mix method by spray application post-emergence in an automated spray cabinet with a water application rate of 400 liters per hectare. The experimental period was 6 days to 4 weeks. Evaluation was carried out using a scale of from 0% to 100%. 0% means no damage, 100% means complete damage.

For assay [2], the system named is common morningglory (Pharbitis album; PHAAL). The description is as above. The class given is in vivo. The note with it: Tritosulfuron (BAS 635 H) 0.250 kg/ha as printed in table + adjuvant 0.125 kg/ha (Comparison 0.250 kg/ha), 0% no damage, 100% complete damage. The procedure:
as §1, §2

As for `CC(C)N1C(=O)c2ccccc2NS1(=O)=O` [Bentazone, bentazone], the “CHEAL herbicidal effect (damage, scale 0% to 100%)” value in assay [1] (Bentazone (Basagran) 0.250 kg/ha + adjuvant 0.125 kg/ha (Comparison 0.250 kg/ha), 400 l/ha water) is 23%.

Regarding `COc1nc(NC(=O)NS(=O)(=O)c2ccccc2C(F)(F)F)nc(C(F)(F)F)n1` [Tritosulfuron, tritosulfuron], the “CHEAL herbicidal effect (damage, scale 0% to 100%)” value in assay [1] (Tritosulfuron (BAS 635 H) 0.250 kg/ha as printed in table + adjuvant 0.125 kg/ha (Comparison 0.250 kg/ha)) is 35%. Besides, the “PHAAL herbicidal effect (damage, scale 0% to 100%)” value in assay [2] is reported as 48%.
